Measured values published in patent US5235061A, “Fungicidal (1H-1,2,4-triazolyl)disilaalkanes” (priority 1991, dated 1993).

How the values were obtained:
Assay in all cases: In vitro percent disease control (radii of spore growth on agar)
Type in all cases: cell-based
Alternaria mali = conditions: Alternaria mali, read-out: % controlled, Al.
Experimental: (§1) The compounds of this invention were dissolved respectively in acetone in an amount equal to 10% of the final volume and then in purified water at the concentration of 100 ppm and 50 ppm.
(§2) Each of the solution was mixed with potato-sucrose-agar medium in a 6" petri dish and one of the fungi was spotted at the center of the dish. The dish was incubated in growth room for several days. The percent disease control was derived from the radii of spore growth. The screening tests in vitro condition are well-known to those skilled in the art.
(§3) The following fungi were used for the screening.

Rhizopus sp. = conditions: Rhizopus, read-out: % controlled, Rhi. sp.
Experimental: as §1, §2, §3

Phytophthora capsisi = conditions: Phytophthora, read-out: % controlled, Phy ca.
Experimental: as §1, §2, §3
2) Phy. ca.; Phytophthora capsisi

Physalospora baccae = conditions: read-out: % controlled, Phy ba.
Experimental: as §1, §2, §3
3) Phy. ba.; Physalospora baccae

[1] = system: Botryosphaeria dothidea Macrophoma sp.; conditions: Botryosphaeria dothidea, read-out: % controlled, Bo.do (Ma.)
Experimental: as §1, §2, §3
4) Bo.do(Ma); Botryosphaeria dothidea Macrophoma sp.

Glomerella cingulata = conditions: Colletotrichum gloeosporioides, read-out: % controlled, Glo.
Experimental: as §1, §2, §3
5) Glo.; Glomerella cingulata

Pyricalaria oryzae = conditions: for inhibition of growth at 50 ppm: read-out: % controlled, Py. or., 50 ppm; for inhibition of growth at 100 ppm: read-out: % controlled, Py. or., 100 ppm
Experimental: as §1, §2, §3
6) Py.or.; Pyricalaria oryzae

Rhizoctonia solani = conditions: Rhizoctonia solani, read-out: % controlled, Rhy. so.
Experimental: as §1, §2, §3
7) Rhi.so.; Rhizoctonia solani

Fusarium moniliforme = system: Fusarium moniliforme
Experimental: as §1, §2, §3
8) Fu.mo.; Fusarium moniliforme

Botry tris cinerea = conditions: read-out: % controlled, Bo ci.
Experimental: as §1, §2, §3
10) Bo.ci.; Botry tris cinerea

Row | Structure (SMILES) | inhibition of growth at 50 ppm (Alternaria mali) [%] | inhibition of growth at 100 ppm (Alternaria mali) [%] | inhibition of growth at 50 ppm (Rhizopus sp.) [%] | inhibition of growth at 100 ppm (Rhizopus sp.) [%] | inhibition of growth at 50 ppm (Phytophthora capsisi) [%] | inhibition of growth at 100 ppm (Phytophthora capsisi) [%] | inhibition of growth at 50 ppm (Physalospora baccae) [%] | inhibition of growth at 100 ppm (Physalospora baccae) [%] | inhibition of growth at 50 ppm [1] [%] | inhibition of growth at 100 ppm [1] [%] | inhibition of growth at 50 ppm (Glomerella cingulata) [%] | inhibition of growth at 100 ppm (Glomerella cingulata) [%] | inhibition of growth at 50 ppm (Pyricalaria oryzae) [%] | inhibition of growth at 100 ppm (Pyricalaria oryzae) [%] | inhibition of growth at 50 ppm (Rhizoctonia solani) [%] | inhibition of growth at 100 ppm (Rhizoctonia solani) [%] | % controlled, Fu. mo. (Fusarium moniliforme; 50 ppm) [%] | % controlled, Fu. mo. (Fusarium moniliforme; 100 ppm) [%] | inhibition of growth at 50 ppm (Botry tris cinerea) [%] | inhibition of growth at 100 ppm (Botry tris cinerea) [%]
1 | C[Si](C)(C)C[Si](Cn1cncn1)(c1ccc(Cl)cc1)c1ccc(Cl)cc1 [2,2-bis(4-chlorophenyl)-4,4-dimethyl-2,4-disila-1-(1H-1,2,4-triazol-1-yl)pentane] | 75 | 79 | 51 | 54 | 28 | 34 | 90 | 100 | 70 | 72 | 83 | 89 | 90 | 95 | 56 | 66 | 46 | 65 | 67 | 85
2 | C[Si](C)(C[Si](Cn1cncn1)(c1ccc(Cl)cc1)c1ccc(Cl)cc1)c1ccc(F)cc1 [2,2-bis(4-chlorophenyl)-4-(4-fluorophenyl)-4-methyl-2,4-disila-1-(1H-1,2,4-triazol-1-yl)pentane] | 51 | 58 | 26 | 32 | 6 | 9 | 44 | 48 | 54 | 61 | 0 | 0 | 57 | 57 | 43 | 77 | 41 | 55 | 37 | 53
3 | CCOc1ccc([Si](Cn2cncn2)(C[Si](C)(C)c2ccc(F)cc2)c2ccc(OCC)cc2)cc1 [2,2-bis(4-ethoxyphenyl)-4-(4-fluorophenyl)-4-methyl-2,4-disila-1-(1H-1,2,4-triazol-1-yl)pentane] | 63 | 72 | 19 | 43 | 50 | 60 | 53 | 74 | 74 | 78 | 71 | 77 | 100 | 100 | 78 | 78 | 58 | 63 | 69 | 66
4 | C[Si](C)(C[Si](Cn1cncn1)(c1ccc(F)cc1)c1ccc(F)cc1)c1ccc(-c2ccccc2)cc1 [2,2-bis(4-fluorophenyl)-4-(4-phenylphenyl)-4-methyl-2,4-disila-1-(1H-1,2,4-triazol-1-yl)pentane] | 46 | 46 | 29 | 29 | 6 | 9 | 28 | 32 | 47 | 49 | 71 | 73 | 54 | 57 | 65 | 67 | 41 | 41 | 18 | 23
5 | C[Si](C)(C[Si](C)(Cn1cncn1)c1ccc(Cl)cc1)c1ccc(Cl)cc1 (centres unmarked) [2,4-bis(4-chlorophenyl)-2,4-dimethyl-2,4-disila-1-(1H-1,2,4-triazol-1-yl)pentane] | 54 | 69 | 31 | 40 | 16 | 22 | 34 | 37 | 80 | 82 | 70 | 76 | 27 | 27 | 28 | 42 | 48 | 57 | 33 | 41
6 | COc1ccc([Si](Cn2cncn2)(C[Si](C)(C)c2ccc(Cl)cc2)c2ccc(Cl)cc2)cc1 (centres unmarked) [2,4-bis(4-chlorophenyl)-2-(4-methoxyphenyl)-4-methyl-2,4-disila-1-(1H-1,2,4-triazol-1-yl)pentane] | 74 | 89 | 46 | 50 | 45 | 65 | 76 | 79 | 75 | 79 | 76 | 87 | 100 | 100 | 90 | 92 | 42 | 48 | 40 | 43
7 | C[Si](C)(C[Si](C)(Cn1cncn1)c1ccc(F)cc1)c1ccc(F)cc1 (centres unmarked) [2,4-bis(4-fluorophenyl)-2,4-dimethyl,2,4-disila-1-(1H-1,2,4-triazol-1-yl)pentane] | 38 | 44 | 24 | 26 | 3 | 6 | 22 | 22 | 40 | 43 | 72 | 73 | 50 | 54 | 57 | 60 | 35 | 38 | 0 | 10
8 | C[Si](C)(C)C[Si](C)(Cn1cncn1)c1ccc(F)cc1 (centres unmarked) [2-(4-fluorophenyl)-2,4,4-trimethyl-2,4-disila-1-(1H-1,2,4-triazol-1-yl)pentane] | 78 | 81 | 49 | 56 | 20 | 31 | 56 | 72 | 69 | 74 |  |  | 100 | 100 | 90 | 90 | 62 | 66 | 81 | 83
